Article PMC6337650 (Molecules, 2018)

Experiments:
HepG2 cells = test: MTT antiproliferative assay, HepG2; format: cell-based, human; conditions: Homo sapiens, HepG2, 48 h, MTT, mean ± SD, n=3; for inhibition at 100 µM: read-out: % Growth Inhibition at 100 μM HepG2
Method: (§1) The antiproliferative activity of the target compounds against a normal L02 cell line and the three different human cancer cell lines viz. colorectal (HCT-116), liver (BEL-7402) and liver (HepG2) were evaluated using a standard MTT-based colorimetric assay. All cell lines were obtained from the Key Laboratory of Natural Resources and Functional Molecules of the Changbai Mountain (Yanbian University, Jilin, China) and maintained in Dulbecco’s modified Eagle’s medium (DMEM) and RPMI Media 1640 (RPMI1640), supplemented with 10% fetal bovine serum (FBS) at 37 °C in a humidified atmosphere containing 5% CO2.
(§2) Cells were plated in 96-well plates at appropriate densities to ensure exponential growth throughout the experimental period (9 × 10^3 cells per well) and then allowed to adhere for 24 h. Cells were then treated for 48 h with four serial concentrations (1, 10, 50 and 100 µM) of each compound. 5-fluorouracil (5-FU) was used as a positive control. After 48 h of incubation, 10 µL of MTT solution was added to each well to a final concentration of 2 mg/mL. Plates were then incubated for a further 4 h. After incubation, the MTT solution was removed and 150 µL of DMSO was added to each well for coloration. The plates were shaken vigorously for 10 min at room temperature to ensure complete solubilization. The optical density (OD) was read on a microplate reader (ELx800, BioTek, Highland Park, Winooski, VT, USA) at a wavelength of 492 nm and the data were subsequently analyzed. The percentage of cell growth inhibition was calculated from the following equation: Inhibitory rate (%) = [(1 − (ODtreated-ODblank)/(ODcontrol-ODblank)] × 100.(1)

BEL-7402 cells = test: MTT antiproliferative assay, BEL-7402; format: cell-based, human; conditions: Homo sapiens, Bel-7402, 48 h, MTT, mean ± SD, n=3; for inhibition at 100 µM: read-out: % Growth Inhibition at 100 μM BEL-7402
Method: as §1, §2

HCT-116 cells = test: MTT antiproliferative assay, HCT-116; format: cell-based, human; conditions: Homo sapiens, HCT-116, 48 h, MTT, mean ± SD, n=3; for inhibition at 100 µM: read-out: % Growth Inhibition at 100 μM HCT-116
Method: as §1, §2

| SMILES | IC50 (HepG2 cells) [µM] | IC50 (BEL-7402 cells) [µM] | IC50 (HCT-116 cells) [µM] | melting point [°C] | inhibition at 100 µM (HepG2 cells) [%] | inhibition at 100 µM (BEL-7402 cells) [%] | inhibition at 100 µM (HCT-116 cells) [%] |
| --- | --- | --- | --- | --- | --- | --- | --- |
| O=c1[nH]cc(F)c(=O)[nH]1 [5-FU, 5-fluorouracil, reference compound] | 23.4 ± 0.37 | 21.3 ± 2.43 | 24.8 ± 2.08 | – | – | – | – |
| C[C@@]12CC[C@@H]3[C@@](CC[C@H]4[C@@]3(C)CCC[C@@]4(C)C(=O)NCCN3CCCC3)(CC1=O)C2 [Compound 1a, (4R,4aS,6aR,9S,11aR,11bS)-4,9,11b-trimethyl-8-oxo-N-(2-(pyrrolidin-1-yl)ethyl)tetradecahydro-6a,9-methanocyclohepta[a]naphthalene-4-carboxamide] | – | – | – | 136 to 137 | 66 ± 1.33 | 87.1 ± 2.37 | 65.2 ± 2.52 |
| CON(C)C(=O)[C@]1(C)CCC[C@@]2(C)[C@@H]3CC[C@@]4(C)C[C@]3(CC[C@@H]21)CC4=O [Compound 1c, (4R,4aS,6aR,9S,11aR,11bS)-N-methoxy-N,4,9,11b-tetramethyl-8-oxotetradecahydro-6a,9-methanocyclohepta[a]naphthalene-4-carboxamide] | – | – | – | 144 to 145 | < 10 | 31.3 ± 1.22 | < 10 |
| CN1CCN(C(=O)COC(=O)[C@]2(C)CCC[C@@]3(C)[C@@H]4CC[C@@]5(C)C[C@]4(CC[C@@H]32)CC5=O)CC1 [Compound 2a, 2-(4-methylpiperazin-1-yl)-2-oxoethyl(4R,4aS,6aR,9S,11aR,11bS)-4,9,11b-trimethyl-8-oxotetradecahydro-6a,9-methanocyclohepta[a]naphthalene-4-carboxylate] | – | – | – | 112 to 113 | 40.6 ± 0.7 | 65 ± 2.62 | 62.1 ± 1.02 |
| C[C@@]12CC[C@@H]3[C@@](CC[C@H]4[C@@]3(C)CCC[C@@]4(C)C(=O)OCC(=O)N3CCN(c4ccccc4)CC3)(CC1=O)C2 [Compound 2c, 2-oxo-2-(4-phenylpiperazin-1-yl)ethyl(4R,4aS,6aR,9S,11aR,11bS)-4,9,11b-trimethyl-8-oxotetradecahydro-6a,9-methanocyclohepta[a]naphthalene-4-carboxylate] | – | – | – | 143 to 144 | < 10 | 40.5 ± 0.87 | 15.7 ± 0.61 |
| COC(=O)C(NC(=O)C1(C)CCCC2(C)C3CCC4(C)CC3(CCC12)CC4=O)C(C)C [Compound 3c, Methyl((4R,4aS,6aR,9S,11aR,11bS)-4,9,11b-trimethyl-8-oxotetradecahydro-6a,9-methanocyclohepta[a]naphthalene-4-carbonyl)-L-valinate] | – | – | – | – | 23.9 ± 0.85 | 66.6 ± 1.9 | 54.7 ± 0.59 |
| COC(=O)C(Cc1c[nH]c2ccccc12)NC(=O)C1(C)CCCC2(C)C3CCC4(C)CC3(CCC12)CC4=O [Compound 3d, Methyl((4R,4aS,6aR,9S,11aR,11bS)-4,9,11b-trimethyl-8-oxotetradecahydro-6a,9-methanocyclohepta[a]naphthalene-4-carbonyl)-L-tryptophanate] | – | – | – | 165 to 166 | < 10 | 35.8 ± 2.37 | 19.7 ± 1.11 |
| CCOP(=O)(OCC)C(NC(=O)COC(=O)[C@]1(C)CCC[C@@]2(C)[C@@H]3CC[C@@]4(C)C[C@]3(CC[C@@H]21)CC4=O)c1ccccc1 (stereo partly drawn) [Compound 6a, 2-(((diethoxyphosphoryl)(phenyl)methyl)amino)-2-oxoethyl(4R,4aS,6aR,9S,11aR,11bS)-4,9,11b-trimethyl-8-oxotetradecahydro-6a,9-methanocyclohepta[a]naphthalene-4-carboxylate] | – | – | – | 156 to 157 | 28 ± 0.99 | 33.7 ± 0.91 | 50 ± 2.27 |
| CCOP(=O)(OCC)C(NC(=O)COC(=O)[C@]1(C)CCC[C@@]2(C)[C@@H]3CC[C@@]4(C)C[C@]3(CC[C@@H]21)CC4=O)c1ccc(Cl)cc1 (stereo partly drawn) [Compound 6b, 2-(((4-chlorophenyl)(diethoxyphosphoryl)methyl)amino)-2-oxoethyl(4R,4aS,6aR,9S,11aR,11bS)-4,9,11b-trimethyl-8-oxotetradecahydro-6a,9-methanocyclohepta[a]naphthalene-4-carboxylate] | – | – | – | 149 to 150 | 40.2 ± 2.56 | 50.4 ± 1.63 | 50.3 ± 2.31 |
| CCOP(=O)(OCC)C(NC(=O)COC(=O)[C@]1(C)CCC[C@@]2(C)[C@@H]3CC[C@@]4(C)C[C@]3(CC[C@@H]21)CC4=O)c1ccc(Cl)c(Cl)c1 (stereo partly drawn) [Compound 6e, 2-(((3,4-dichlorophenyl)(diethoxyphosphoryl)methyl)amino)-2-oxoethyl(4R,4aS,6aR,9S,11aR,11bS)-4,9,11b-trimethyl-8-oxotetradecahydro-6a,9-methanocyclohepta[a]naphthalene-4-carboxylate] | – | – | – | 168 to 169 | 39.5 ± 1.37 | 49.9 ± 1.26 | 43.5 ± 0.56 |

The next lines start with results.

| IC50 (HepG2 cells) [µM] | IC50 (BEL-7402 cells) [µM] | IC50 (HCT-116 cells) [µM] | melting point [°C] | SMILES | inhibition at 100 µM (HepG2 cells) [%] | inhibition at 100 µM (BEL-7402 cells) [%] | inhibition at 100 µM (HCT-116 cells) [%] |
| --- | --- | --- | --- | --- | --- | --- | --- |
| – | – | – | 107 to 108 | C[C@@]12CC[C@@H]3[C@@](CC[C@H]4[C@@]3(C)CCC[C@@]4(C)C(=O)OCC(=O)Nc3ccccc3Cl)(CC1=O)C2 [Compound 4b, 2-((2-chlorophenyl)amino)-2-oxoethyl(4R,4aS,6aR,9S,11aR,11bS)-4,9,11b-trimethyl-8-oxotetradecahydro-6a,9-methanocyclohepta[a]naphthalene-4-carboxylate] | < 10 | < 10 | < 10 |
| – | – | – | 120 to 122 | C[C@@]12CC[C@@H]3[C@@](CC[C@H]4[C@@]3(C)CCC[C@@]4(C)C(=O)OCC(=O)Nc3cccc(Cl)c3)(CC1=O)C2 [Compound 4c, 2-((3-chlorophenyl)amino)-2-oxoethyl(4R,4aS,6aR,9S,11aR,11bS)-4,9,11b-trimethyl-8-oxotetradecahydro-6a,9-methanocyclohepta[a]naphthalene-4-carboxylate] | < 10 | 35.7 ± 2.56 | 62.3 ± 3.55 |
| – | – | – | 140 to 142 | C[C@@]12CC[C@@H]3[C@@](CC[C@H]4[C@@]3(C)CCC[C@@]4(C)C(=O)OCC(=O)Nc3ccc(Cl)cc3)(CC1=O)C2 [Compound 4d, 2-((4-chlorophenyl)amino)-2-oxoethyl(4R,4aS,6aR,9S,11aR,11bS)-4,9,11b-trimethyl-8-oxotetradecahydro-6a,9-methanocyclohepta[a]naphthalene-4-carboxylate] | 31.9 ± 1.31 | 52.9 ± 2.11 | 56.9 ± 2.35 |
| – | – | – | 168 to 169 | C[C@@]12CC[C@@H]3[C@@](CC[C@H]4[C@@]3(C)CCC[C@@]4(C)C(=O)OCC(=O)Nc3ccccc3F)(CC1=O)C2 [Compound 4e, 2-((2-fluorophenyl)amino)-2-oxoethyl(4R,4aS,6aR,9S,11aR,11bS)-4,9,11b-trimethyl-8-oxotetradecahydro-6a,9-methanocyclohepta[a]naphthalene-4-carboxylate] | < 10 | 38.7 ± 1.52 | 27.9 ± 0.44 |
| – | – | – | 140 to 141 | C[C@@]12CC[C@@H]3[C@@](CC[C@H]4[C@@]3(C)CCC[C@@]4(C)C(=O)OCC(=O)Nc3ccc(F)cc3)(CC1=O)C2 [Compound 4g, 2-((4-fluorophenyl)amino)-2-oxoethyl(4R,4aS,6aR,9S,11aR,11bS)-4,9,11b-trimethyl-8-oxotetradecahydro-6a,9-methanocyclohepta[a]naphthalene-4-carboxylate] | 39.1 ± 1.13 | 63 ± 2.13 | 65.6 ± 3.01 |
| – | – | – | 86 to 88 | COc1ccc(NC(=O)COC(=O)[C@]2(C)CCC[C@@]3(C)[C@@H]4CC[C@@]5(C)C[C@]4(CC[C@@H]32)CC5=O)cc1 [Compound 4i, 2-((4-methoxyphenyl)amino)-2-oxoethyl(4R,4aS,6aR,9S,11aR,11bS)-4,9,11b-trimethyl-8-oxotetradecahydro-6a,9-methanocyclohepta[a]naphthalene-4-carboxylate] | < 10 | 45.6 ± 1.47 | 53.1 ± 2.56 |
| – | – | – | 166 to 168 | COc1ccc(OC)c(NC(=O)COC(=O)[C@]2(C)CCC[C@@]3(C)[C@@H]4CC[C@@]5(C)C[C@]4(CC[C@@H]32)CC5=O)c1 [Compound 4j, 2-((2,5-dimethoxyphenyl)amino)-2-oxoethyl(4R,4aS,6aR,9S,11aR,11bS)-4,9,11b-trimethyl-8-oxotetradecahydro-6a,9-methanocyclohepta[a]naphthalene-4-carboxylate] | < 10 | 31.3 ± 1.76 | < 10 |
